Measured values as given in US20250270199A1, “THIAZOLE DERIVATIVES AND METHODS OF USING THE SAME” (Arkansas State University - Jonesboro, priority 2022, published 2025).
Converted amounts (≈) assume the structure as drawn. Read-outs that look alike come from different tables or passages of the source.

Experiments:
[1] = tested on: S. aureus ATCC 700699 (Sa 99); assay: MIC, broth microdilution, Sa 99; format: cell-based; conditions: for MIC: Staphylococcus aureus; for Minimum inhibitory concentration (MIC) Sa 99: Table 1, HT series
Protocol: (§1) The broth microdilution method was utilized to determine MIC values of novel thiazole derivatives against different clinically important Gram-positive bacteria according to the guidelines outlined by the Clinical and Laboratory Standards Institute (CLSI) as reported in our recent papers.^1-5 The starting concentration of compounds for MIC determination was 64 μg/mL serially diluted down the wells and the MIC values were recorded in duplicates in three independent experiments on different days.

[2] = tested on: S. aureus ATCC 25923 (Sa 23); assay: MIC, broth microdilution, Sa 23; format: cell-based; conditions: for MIC: Staphylococcus aureus
Protocol: as §1

[3] = tested on: Sa UAMS-1 MRSA ATCC 49230 (Sa UAMS); assay: MIC, broth microdilution, Sa UAMS; format: cell-based, S. aureus; conditions: Staphylococcus aureus
Protocol: as §1

[4] = tested on: S. aureus subsp. aureus Rosenbach ATCC 25904 (SA Newman); assay: MIC, broth microdilution, SA Newman; format: cell-based; conditions: for MIC: Staphylococcus aureus, read-out: Minimum inhibitory concentration (MIC) Sa Newman
Protocol: as §1

[5] = tested on: S. aureus LAC MRSA (Sa LAC); assay: MIC, broth microdilution, Sa LAC; format: cell-based; conditions: Staphylococcus aureus, read-out: Minimum inhibitory concentration (MIC) Sa LAC
Protocol: as §1

[6] = tested on: S. aureus ATCC 33592 (Sa 92); assay: MIC, broth microdilution, Sa 92; format: cell-based; conditions: Staphylococcus aureus
Protocol: as §1

[7] = tested on: S. aureus ATCC BAA-2312 (Sa 12); assay: MIC, broth microdilution, Sa 12; format: cell-based; conditions: Staphylococcus aureus
Protocol: as §1

[8] = tested on: E. faecalis ATCC 29212 (Efs 12); assay: MIC, broth microdilution, Efs 12; format: cell-based; conditions: for MIC: Enterococcus faecalis; for Minimum inhibitory concentration (MIC) Efs 12: Table 1, HT series
Protocol: as §1

[9] = tested on: S. aureus ATCC 33591 (Sa 91); assay: MIC, broth microdilution, Sa 91; format: cell-based; conditions: for MIC: Staphylococcus aureus
Protocol: as §1

[10] = tested on: S. epidermidis ATCC 700296 (Se); assay: MIC, broth microdilution, Se; format: cell-based; conditions: Staphylococcus epidermidis
Protocol: as §1

[11] = tested on: E. faecalis ATCC 51299 (Efs 99); assay: MIC, broth microdilution, Efs 99; format: cell-based; conditions: Enterococcus faecalis, ATCC51299; Table 2, HTM series; read-out: Minimum inhibitory concentration (MIC) Efs 99
Protocol: as §1

[12] = tested on: E. faecium ATCC 700221 (Efm 21); assay: MIC, broth microdilution, Efm 21; format: cell-based; conditions: Enterococcus faecium, ATCC700221, Table 2, HTM series; read-out: Minimum inhibitory concentration (MIC) Efm 21
Protocol: as §1

[13] = tested on: S. aureus subsp. aureus Rosenbach BAA-1717 (Sa USA 300); assay: MIC, broth microdilution, Sa USA 300; format: cell-based; conditions: Staphylococcus aureus, read-out: Minimum inhibitory concentration (MIC) Sa USA 300
Protocol: as §1

[14] = ATCC700699, Table 1, HT series, replicates from different days separated by comma, read-out: Minimum inhibitory concentration (MIC) Sa 99
[15] = replicates from different days separated by comma
[16] = ATCC25923, Table 1, HT series, replicates from different days separated by comma, read-out: Minimum inhibitory concentration (MIC) Sa 23
[17] = Table 1, HT series, replicates from different days separated by comma
[18] = Table 1, HT series, read-out: Minimum inhibitory concentration (MIC) Sa UAMS
[19] = ATCC33592, Table 1, HT series, read-out: Minimum inhibitory concentration (MIC) Sa 92
[20] = ATCCBAA2312, Table 1, HT series, read-out: Minimum inhibitory concentration (MIC) Sa 12
[21] = ATCC29212, Table 1, HT series, replicates from different days separated by comma, read-out: Minimum inhibitory concentration (MIC) Efs 12
[22] = ATCC33591, Table 1, HT series, read-out: Minimum inhibitory concentration (MIC) Sa 91
[23] = ATCC700699, Table 2, HTM series, read-out: Minimum inhibitory concentration (MIC) Sa 99
[24] = ATCC25923, Table 2, HTM series, read-out: Minimum inhibitory concentration (MIC) Sa 23
[25] = Table 2, HTM series, read-out: Minimum inhibitory concentration (MIC) Sa UAMS-1
[26] = ATCC700296, Table 2, HTM series, read-out: Minimum inhibitory concentration (MIC) Se
[27] = ATCC33592, Table 2, HTM series, read-out: Minimum inhibitory concentration (MIC) Sa 92
[28] = ATCCBAA2312, Table 2, HTM series, read-out: Minimum inhibitory concentration (MIC) Sa 12
[29] = ATCC29212, Table 2, HTM series, read-out: Minimum inhibitory concentration (MIC) Efs 12
[30] = ATCC33591, Table 2, HTM series, read-out: Minimum inhibitory concentration (MIC) Sa 91

SMILES: Oc1ccc(-c2csc(-c3ccc(O)c(O)c3)n2)cc1 [Compound 8, 4-(4-(4-hydroxyphenyl)thiazol-2-yl)benzene-1,2-diol]
- MIC [1, 14]: 16 µg/mL (≈ 56.1 µM)
- Minimum inhibitory concentration (MIC) Sa 99 [1, 15]: 8 µg/mL (≈ 28 µM)
- MIC [2, 16]: 16 µg/mL (≈ 56.1 µM)
- Minimum inhibitory concentration (MIC) Sa 23 [2, 17]: 16, 16, 16 μg/mL
- MIC [3, 18]: 32 µg/mL (≈ 112 µM)
- MIC ([4]; Table 1, HT series): 16 µg/mL (≈ 56.1 µM)
- MIC ([5]; Table 1, HT series): 16 µg/mL (≈ 56.1 µM)
- MIC [6, 19]: 32 µg/mL (≈ 112 µM)
- MIC [7, 20]: 16 µg/mL (≈ 56.1 µM)
- MIC [8, 21]: > 32 µg/mL
- Minimum inhibitory concentration (MIC) Efs 12 [8, 15]: >32, >32, >32 μg/mL
- MIC [9, 22]: 32 µg/mL (≈ 112 µM)

SMILES: Oc1ccc(-c2nc(-c3ccc4ccccc4c3)cs2)cc1O [Compound 14, 4-(4-(naphthalen-2-yl)thiazol-2-yl)benzene-1,2-diol]
- MIC [1, 14]: 2 µg/mL (≈ 6.26 µM)
- Minimum inhibitory concentration (MIC) Sa 99 [1, 15]: 2, 2, 2 μg/mL
- MIC [2, 16]: 2 µg/mL (≈ 6.26 µM)
- Minimum inhibitory concentration (MIC) Sa 23 [2, 17]: 2, 2, 2 μg/mL
- MIC [3, 18]: 8 µg/mL (≈ 25 µM)
- MIC ([4]; Table 1, HT series): 8 µg/mL (≈ 25 µM)
- MIC ([5]; Table 1, HT series): 4 µg/mL (≈ 12.5 µM)
- MIC [6, 19]: 8 µg/mL (≈ 25 µM)
- MIC [7, 20]: 8 µg/mL (≈ 25 µM)
- MIC [8, 21]: 16 µg/mL (≈ 50.1 µM)
- Minimum inhibitory concentration (MIC) Efs 12 [8, 15]: 16, 16, 16 μg/mL
- MIC [9, 22]: 8 µg/mL (≈ 25 µM)

SMILES: Oc1ccc(-c2csc(Nc3ccc(Cl)c(Cl)c3)n2)cc1O [Compound 74, 4-(2-((3,4-dichlorophenyl)amino)thiazol-4-yl)benzene-1,2-diol]
- MIC [1, 23]: 4 µg/mL (≈ 11.3 µM)
- MIC [2, 24]: 4 µg/mL (≈ 11.3 µM)
- MIC [3, 25]: 8 µg/mL (≈ 22.6 µM)
- MIC ([4]; Table 2, HTM series): 8 µg/mL (≈ 22.6 µM)
- MIC [10, 26]: 4 µg/mL (≈ 11.3 µM)
- MIC [6, 27]: 4 µg/mL (≈ 11.3 µM)
- MIC [11]: 8 µg/mL (≈ 22.6 µM)
- MIC [12]: 4 µg/mL (≈ 11.3 µM)
- MIC [7, 28]: 4 µg/mL (≈ 11.3 µM)
- MIC ([13]; Table 2, HTM series): 8 µg/mL (≈ 22.6 µM)
- MIC [8, 29]: 8 µg/mL (≈ 22.6 µM)
- MIC [9, 30]: 8 µg/mL (≈ 22.6 µM)

SMILES: Oc1ccc(-c2csc(Nc3ccc(Cl)c(Cl)c3)n2)cc1 [Compound 75, 4-(2-((3,4-dichlorophenyl)amino)thiazol-4-yl)phenol]
- MIC [1, 23]: 2 µg/mL (≈ 5.93 µM)
- MIC [2, 24]: 2 µg/mL (≈ 5.93 µM)
- MIC [3, 25]: 2 µg/mL (≈ 5.93 µM)
- MIC ([4]; Table 2, HTM series): 4 µg/mL (≈ 11.9 µM)
- MIC [10, 26]: 2 µg/mL (≈ 5.93 µM)
- MIC [6, 27]: 2 µg/mL (≈ 5.93 µM)
- MIC [11]: 4 µg/mL (≈ 11.9 µM)
- MIC [12]: 4 µg/mL (≈ 11.9 µM)
- MIC [7, 28]: 2 µg/mL (≈ 5.93 µM)
- MIC ([13]; Table 2, HTM series): 2 µg/mL (≈ 5.93 µM)
- MIC [8, 29]: 4 µg/mL (≈ 11.9 µM)
- MIC [9, 30]: 2 µg/mL (≈ 5.93 µM)

SMILES: CN[C@H](CC(C)C)C(=O)N[C@H]1C(=O)N[C@@H](CC(N)=O)C(=O)N[C@H]2C(=O)N[C@H]3C(=O)N[C@H](C(=O)N[C@H](C(=O)O)c4cc(O)cc(O)c4-c4cc3ccc4O)[C@H](O)c3ccc(c(Cl)c3)Oc3cc2cc(c3O[C@@H]2O[C@H](CO)[C@@H](O)[C@H](O)[C@H]2O[C@H]2C[C@](C)(N)[C@H](O)[C@H](C)O2)Oc2ccc(cc2Cl)[C@H]1O [Vanc., Vancomycin, reference compound]
- MIC ([1]; ATCC700699, read-out: Minimum inhibitory concentration (MIC) Sa 99, Table 1, HT series, replicates from different days separated by comma): 2 µg/mL (≈ 1.38 µM)
- MIC ([1]; ATCC700699, read-out: Minimum inhibitory concentration (MIC) Sa 99, Table 2, HTM series): 4 µg/mL (≈ 2.76 µM)
- MIC ([2]; ATCC25923, read-out: Minimum inhibitory concentration (MIC) Sa 23): 1 µg/mL (≈ 0.69 µM)
- Minimum inhibitory concentration (MIC) Sa 23 ([2]; Table 2, HTM series): 1 µg/mL (≈ 0.69 µM)
- MIC ([3]; read-out: Minimum inhibitory concentration (MIC) Sa UAMS): 2 µg/mL (≈ 1.38 µM)
- MIC ([3]; read-out: Minimum inhibitory concentration (MIC) Sa UAMS-1): 1 µg/mL (≈ 0.69 µM)
- MIC [4]: 2 µg/mL (≈ 1.38 µM)
- Minimum inhibitory concentration (MIC) Sa Newman ([4]; Table 2, HTM series): 2 µg/mL (≈ 1.38 µM)
- MIC [5]: 1 µg/mL (≈ 0.69 µM)
- MIC ([10]; ATCC700296, read-out: Minimum inhibitory concentration (MIC) Se): 2 µg/mL (≈ 1.38 µM)
- MIC ([6]; ATCC33592, read-out: Minimum inhibitory concentration (MIC) Sa 92, Table 1, HT series): 1 µg/mL (≈ 0.69 µM)
- MIC ([6]; ATCC33592, read-out: Minimum inhibitory concentration (MIC) Sa 92, Table 2, HTM series): 2 µg/mL (≈ 1.38 µM)
- MIC ([7]; ATCCBAA2312, read-out: Minimum inhibitory concentration (MIC) Sa 12, Table 1, HT series): 1 µg/mL (≈ 0.69 µM)
- MIC ([7]; ATCCBAA2312, read-out: Minimum inhibitory concentration (MIC) Sa 12, Table 2, HTM series): 0.5 µg/mL (≈ 0.345 µM)
- MIC [13]: 1 µg/mL (≈ 0.69 µM)
- MIC ([8]; ATCC29212, read-out: Minimum inhibitory concentration (MIC) Efs 12, Table 1, HT series, replicates from different days separated by comma): 2 µg/mL (≈ 1.38 µM)
- MIC ([8]; ATCC29212, read-out: Minimum inhibitory concentration (MIC) Efs 12, Table 2, HTM series): 4 µg/mL (≈ 2.76 µM)
- MIC ([9]; ATCC33591, read-out: Minimum inhibitory concentration (MIC) Sa 91): 2 µg/mL (≈ 1.38 µM)
- Minimum inhibitory concentration (MIC) Sa 91 ([9]; Table 2, HTM series): 2 µg/mL (≈ 1.38 µM)
